In patent US4011307A, “Production of ^203 Pb-tris-hydroxymethyl amino methane” (The United States of America as represented by the United …, priority 1976, dated 1977):

Tests used:
melanomas, tumors = experiment: Localization / tissue distribution study in tumor bearing animals; assay type: in vivo, mice and hamsters
Experimental: The ^203 Pb-tris as described herein was injected in a relatively large number of mice and hamsters which were tumor bearing animals.

[1] = tested on: tissues of hamsters with eye melanoma; experiment: Distribution of carrier-free lead-203 tris in tissue at various times; assay type: in vivo, hamster
Experimental: The ^203 Pb-tris as described herein was injected in a relatively large number of mice and hamsters which were tumor bearing animals. […]

[2] = Toxicity effects from the presence of lead in the blood stream; assay type: in vivo; conditions: near carrier-free lead-203 complexed with tris
tumors = conditions: previous attempts reported; cited from earlier work

## Lead-203 tris-hydroxymethyl aminomethane
melanomas, tumors; extensive studies
  Ability to localize in melanomas: has the ability to localize in melanomas, especially those of the eye
melanomas, tumors; tumor bearing mice and hamsters, injected, tissue distribution
  Uptake of ^203 Pb by the tumors: selective uptake by the tumors
[1]; Time 1, 60 min
  Distribution, Blood: 3.870 Percent Uptake per Gram of Tis
  Distribution, Bone: 3.977 Percent Uptake per Gram of Tis
  Distribution, Choroid: 1.109 Percent Uptake per Gram of Tis
  Distribution, Gonads: 2.076 Percent Uptake per Gram of Tis
  Distribution, Intestines: 0.841 Percent Uptake per Gram of Tis
  Distribution, Kidney: 25.32 Percent Uptake per Gram of Tis
  Distribution, Lens: 0.017 Percent Uptake per Gram of Tis
  Distribution, Liver: 5.463 Percent Uptake per Gram of Tis
  Distribution, Melanoma-Eye: 1.048 Percent Uptake per Gram of Tis
  Distribution, Melanoma-Skin: 1.095 Percent Uptake per Gram of Tis
  Distribution, Normal-Eye: 0.200 Percent Uptake per Gram of Tis
  Distribution, Normal-Skin: 0.401 Percent Uptake per Gram of Tis
  Distribution, Retina: 0.169 Percent Uptake per Gram of Tis
  Distribution, Vitreous: 0.031 Percent Uptake per Gram of Tis
[1]; Time 3, 180 min
  Distribution, Blood: 3.635 Percent Uptake per Gram of Tis
  Distribution, Bone: 3.991 Percent Uptake per Gram of Tis
  Distribution, Choroid: 0.950 Percent Uptake per Gram of Tis
  Distribution, Gonads: 0.238 Percent Uptake per Gram of Tis
  Distribution, Intestines: 0.653 Percent Uptake per Gram of Tis
  Distribution, Kidney: 18.156 Percent Uptake per Gram of Tis
  Distribution, Lens: 0.023 Percent Uptake per Gram of Tis
  Distribution, Liver: 4.273 Percent Uptake per Gram of Tis
  Distribution, Melanoma-Eye: 0.976 Percent Uptake per Gram of Tis
  Distribution, Melanoma-Skin: 1.051 Percent Uptake per Gram of Tis
  Distribution, Normal-Eye: 0.086 Percent Uptake per Gram of Tis
  Distribution, Normal-Skin: 0.256 Percent Uptake per Gram of Tis
  Distribution, Retina: 0.074 Percent Uptake per Gram of Tis
  Distribution, Vitreous: 0.028 Percent Uptake per Gram of Tis
[1]; Time 6, 360 min
  Distribution, Blood: 5.847 Percent Uptake per Gram of Tis
  Distribution, Bone: 5.320 Percent Uptake per Gram of Tis
  Distribution, Choroid: 0.337 Percent Uptake per Gram of Tis
  Distribution, Gonads: 0.663 Percent Uptake per Gram of Tis
  Distribution, Intestines: 1.593 Percent Uptake per Gram of Tis
  Distribution, Kidney: 17.703 Percent Uptake per Gram of Tis
  Distribution, Lens: 0.021 Percent Uptake per Gram of Tis
  Distribution, Liver: 7.188 Percent Uptake per Gram of Tis
  Distribution, Melanoma-Eye: 1.609 Percent Uptake per Gram of Tis
  Distribution, Melanoma-Skin: 1.209 Percent Uptake per Gram of Tis
  Distribution, Normal-Eye: 0.111 Percent Uptake per Gram of Tis
  Distribution, Normal-Skin: 0.286 Percent Uptake per Gram of Tis
  Distribution, Retina: 0.251 Percent Uptake per Gram of Tis
  Distribution, Vitreous: 0.036 Percent Uptake per Gram of Tis
[1]; Time 24, 1440 min
  Distribution, Blood: 3.007 Percent Uptake per Gram of Tis
  Distribution, Bone: 5.342 Percent Uptake per Gram of Tis
  Distribution, Choroid: 0.361 Percent Uptake per Gram of Tis
  Distribution, Gonads: 0.164 Percent Uptake per Gram of Tis
  Distribution, Intestines: 1.664 Percent Uptake per Gram of Tis
  Distribution, Kidney: 10.508 Percent Uptake per Gram of Tis
  Distribution, Lens: 0.005 Percent Uptake per Gram of Tis
  Distribution, Liver: 3.729 Percent Uptake per Gram of Tis
  Distribution, Melanoma-Eye: 1.314 Percent Uptake per Gram of Tis
  Distribution, Melanoma-Skin: 0.845 Percent Uptake per Gram of Tis
  Distribution, Normal-Eye: 0.054 Percent Uptake per Gram of Tis
  Distribution, Normal-Skin: 0.090 Percent Uptake per Gram of Tis
  Distribution, Retina: 0.206 Percent Uptake per Gram of Tis
  Distribution, Vitreous: 0.031 Percent Uptake per Gram of Tis
[1]; Time 72, 4320 min
  Distribution, Blood: 3.792 Percent Uptake per Gram of Tis
  Distribution, Bone: 9.761 Percent Uptake per Gram of Tis
  Distribution, Kidney: 17.443 Percent Uptake per Gram of Tis
  Distribution, Liver: 4.841 Percent Uptake per Gram of Tis
  Distribution, Melanoma-Skin: 1.010 Percent Uptake per Gram of Tis
  Distribution, Normal-Eye: 0.084 Percent Uptake per Gram of Tis
  Distribution, Normal-Skin: 0.122 Percent Uptake per Gram of Tis
[1]; Time 144, 8640 min
  Distribution, Blood: 0.852 Percent Uptake per Gram of Tis
  Distribution, Bone: 5.757 Percent Uptake per Gram of Tis
  Distribution, Choroid: 0.131 Percent Uptake per Gram of Tis
  Distribution, Gonads: 0.079 Percent Uptake per Gram of Tis
  Distribution, Intestines: 0.217 Percent Uptake per Gram of Tis
  Distribution, Kidney: 3.904 Percent Uptake per Gram of Tis
  Distribution, Lens: 0.005 Percent Uptake per Gram of Tis
  Distribution, Liver: 2.331 Percent Uptake per Gram of Tis
  Distribution, Melanoma-Eye: 0.821 Percent Uptake per Gram of Tis
  Distribution, Melanoma-Skin: 0.749 Percent Uptake per Gram of Tis
  Distribution, Muscle: 0.027 Percent Uptake per Gram of Tis
  Distribution, Normal-Eye: 0.047 Percent Uptake per Gram of Tis
  Distribution, Normal-Skin: 0.071 Percent Uptake per Gram of Tis
  Distribution, Retina: 0.127 Percent Uptake per Gram of Tis
  Distribution, Vitreous: 0.018 Percent Uptake per Gram of Tis
[1]; Time 72, * 4 animals, 4320 min
  Distribution, Choroid: 0.127 Percent Uptake per Gram of Tis
  Distribution, Intestines: 2.064 Percent Uptake per Gram of Tis
  Distribution, Lens: 0.006 Percent Uptake per Gram of Tis
  Distribution, Melanoma-Eye: 0.724 Percent Uptake per Gram of Tis
  Distribution, Retina: 0.091 Percent Uptake per Gram of Tis
  Distribution, Vitreous: 0.014 Percent Uptake per Gram of Tis
[1]; Time 1
  Distribution, Cornea: 0.834 Percent Uptake per Gram of Tis
  Distribution, Muscle: 0.159 Percent Uptake per Gram of Tis
[1]; Time 3
  Distribution, Cornea: 0.173 Percent Uptake per Gram of Tis
  Distribution, Muscle: 0.100 Percent Uptake per Gram of Tis
[1]; Time 6
  Distribution, Cornea: 0.891 Percent Uptake per Gram of Tis
  Distribution, Muscle: 0.090 Percent Uptake per Gram of Tis
[1]; Time 24
  Distribution, Cornea: 0.200 Percent Uptake per Gram of Tis
  Distribution, Muscle: 0.026 Percent Uptake per Gram of Tis
[1]; Time 72, * 4 animals
  Distribution, Cornea: 0.084 Percent Uptake per Gram of Tis
[1]; Time 144
  Distribution, Cornea: 0.062 Percent Uptake per Gram of Tis
[1]; Time 72
  Distribution, Muscle: 0.041 Percent Uptake per Gram of Tis
[2]
  Toxicity effects from the presence of lead in the blood stream: avoided or minimized

## lead
tumors
  Outcome of previous attempts to use lead as agent for the treatment of tumors: apparently failed to produce useful results due to the toxicity of lead in the bloodstream
